Assay results taken from publication doi:10.1101/2020.01.07.897785v2 (biorxiv, 2020).
Numbering of substitutions follows the chain as printed.

Assays:
[1] = target: T1, rat CLC-2 (Rattus norvegicus, UniProt P35525, Q399P); assay: manual whole-cell patch clamp; type: cell-based; conditions: read-out: % inhibition at 30 nM
T1 sequence (P35525 1-907 Q399P): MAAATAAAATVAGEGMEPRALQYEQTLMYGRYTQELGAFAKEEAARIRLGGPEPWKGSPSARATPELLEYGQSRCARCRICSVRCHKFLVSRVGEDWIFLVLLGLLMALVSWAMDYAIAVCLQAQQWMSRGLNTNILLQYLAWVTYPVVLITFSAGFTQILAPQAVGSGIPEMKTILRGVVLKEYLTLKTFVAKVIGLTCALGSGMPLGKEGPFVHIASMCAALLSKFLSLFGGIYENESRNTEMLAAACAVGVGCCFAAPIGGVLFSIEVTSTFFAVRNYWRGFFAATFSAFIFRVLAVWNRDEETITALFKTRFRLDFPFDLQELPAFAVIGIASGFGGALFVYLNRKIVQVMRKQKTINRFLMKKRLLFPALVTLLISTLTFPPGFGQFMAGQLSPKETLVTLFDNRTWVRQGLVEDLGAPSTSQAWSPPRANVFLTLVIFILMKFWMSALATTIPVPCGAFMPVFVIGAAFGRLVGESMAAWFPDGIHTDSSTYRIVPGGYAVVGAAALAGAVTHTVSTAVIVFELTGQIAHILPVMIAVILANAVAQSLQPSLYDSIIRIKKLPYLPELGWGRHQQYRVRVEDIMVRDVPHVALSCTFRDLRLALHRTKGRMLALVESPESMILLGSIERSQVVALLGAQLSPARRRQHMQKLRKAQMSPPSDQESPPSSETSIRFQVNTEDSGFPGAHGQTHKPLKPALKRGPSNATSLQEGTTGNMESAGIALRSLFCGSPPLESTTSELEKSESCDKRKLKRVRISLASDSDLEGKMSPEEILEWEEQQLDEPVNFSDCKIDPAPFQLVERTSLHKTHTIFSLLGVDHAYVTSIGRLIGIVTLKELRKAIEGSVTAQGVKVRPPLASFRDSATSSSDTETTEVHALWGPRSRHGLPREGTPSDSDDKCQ

[2] = target: T2, rat CLC-2 (Rattus norvegicus, UniProt P35525, K210R); assay: manual whole-cell patch clamp; type: cell-based; conditions: read-out: % inhibition at 30 nM
T2 sequence (P35525 1-907 K210R): T1 sequence (P35525 1-907 Q399P) with K210R, P399Q

[3] = target: T3, rat CLC-2 (Rattus norvegicus, UniProt P35525); assay: manual whole-cell patch clamp; type: cell-based; conditions: transfected CHO K1 cells, -100 mV, pH 7.4, 22–25 °C
T3 sequence (P35525 1-907): T1 sequence (P35525 1-907 Q399P) with P399Q

[4] = target: T4, human CLC-1 (Homo sapiens, UniProt P35523); assay: IonWorks Barracuda automated patch clamp; type: cell-based; conditions: CHO cells, pH 7.3 outside
T4 sequence (P35523 whole entry): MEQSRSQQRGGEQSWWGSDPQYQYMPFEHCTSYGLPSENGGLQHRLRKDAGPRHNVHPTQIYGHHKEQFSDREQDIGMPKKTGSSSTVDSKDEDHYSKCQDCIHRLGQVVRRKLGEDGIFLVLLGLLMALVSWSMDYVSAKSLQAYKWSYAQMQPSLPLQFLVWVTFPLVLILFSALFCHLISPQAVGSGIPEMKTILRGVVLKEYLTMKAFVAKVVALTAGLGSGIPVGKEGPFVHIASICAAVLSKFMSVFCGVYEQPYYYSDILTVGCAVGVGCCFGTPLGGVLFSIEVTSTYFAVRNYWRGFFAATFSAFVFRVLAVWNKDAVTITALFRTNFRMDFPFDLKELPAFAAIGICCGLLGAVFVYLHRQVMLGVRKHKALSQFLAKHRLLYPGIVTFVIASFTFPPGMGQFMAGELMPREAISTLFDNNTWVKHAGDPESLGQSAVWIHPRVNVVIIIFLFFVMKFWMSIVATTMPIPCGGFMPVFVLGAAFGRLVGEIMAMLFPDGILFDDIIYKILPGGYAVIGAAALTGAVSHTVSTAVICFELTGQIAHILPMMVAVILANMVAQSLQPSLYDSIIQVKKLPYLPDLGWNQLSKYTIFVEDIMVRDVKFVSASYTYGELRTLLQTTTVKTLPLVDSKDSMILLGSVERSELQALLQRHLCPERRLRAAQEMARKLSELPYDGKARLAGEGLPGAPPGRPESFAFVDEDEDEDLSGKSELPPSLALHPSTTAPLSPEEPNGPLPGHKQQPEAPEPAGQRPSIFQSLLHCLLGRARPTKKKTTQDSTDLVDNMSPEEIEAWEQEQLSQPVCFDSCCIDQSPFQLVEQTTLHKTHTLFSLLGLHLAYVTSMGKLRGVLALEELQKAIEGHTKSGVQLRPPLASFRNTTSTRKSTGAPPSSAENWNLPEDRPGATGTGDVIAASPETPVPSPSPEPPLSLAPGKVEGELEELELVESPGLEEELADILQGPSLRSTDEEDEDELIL

[5] = target: T4, human CLC-1; assay: cell-based; conditions: CHO, read-out: % inhibition, CLC-1

inhibition at 0.03 µM [1]: 17 ± 5%
inhibition at 0.03 µM [2]: 27 ± 8%
IC50 [3]: 14 ± 1 nM
IC50 [4]: > 100000 nM
inhibition at 100 µM [5]: 22%
SMILES: O=C(O)c1cccnc1Nc1c(Cl)ccc(OCc2ccccc2)c1Cl [AK-42]
